Drawing on patent US9409905B2, “Antibacterial compounds and methods for use” (PTC THERAPEUTICS, INC., priority 2011, dated 2016), this text covers MIC for 20 compounds.

For assay [1], the system named is Escherichia coli (E. coli) BAS849. The assay can be described thus: Antibacterial activity, microbroth dilution MIC (Table 1). In kind it is cell-based. The settings on record: microbroth dilution, super sensitive Gram-negative E. coli BAS849, read-out: MIC, BAS849. Summed up: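 Growth inhibition by microbroth dilution. MIC = lowest μg/mL with no visible growth. Strain 25922 is the control Gram-negative; BAS849 is hypersensitive.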
A general note: In broth dilution the organism is exposed to a series of concentrations in liquid medium.

The test system of assay [2] is Staphylococcus aureus (S. aureus) 29213. The assay is described as above. In kind it is cell-based. The note with it: microbroth dilution, Gram-positive S. aureus 29213, read-out: MIC, 29213. Put shortly:
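Microbroth dilution was used. MIC, in μg/mL, is the lowest drug concentration preventing macroscopically visible growth under the test conditions.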

Assay [3] relates to E. coli 25922. The assay is described as above. In kind it is cell-based, Escherichia coli. The note with it: Escherichia coli; microbroth dilution; control Gram-negative E. coli 25922 strain; read-out: MIC, 25922. Put shortly: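 In a microbroth dilution test, the minimum inhibitory concentration was defined as the lowest compound level preventing growth seen by eye, and was given in μg/mL.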

Assay [4] has as its system E. coli LZ3111. The assay can be described thus: Antibacterial activity, MIC, quinolone resistant strain (Table 2). In kind it is cell-based. The note with it: Escherichia coli, LZ3111, read-out: MIC LZ3111. Put shortly:
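MIC values (μg/mL) came from a microbroth dilution assay, scored as the lowest drug concentration at which no growth was visible by eye.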

Each structure is given as a SMILES string. ≈ marks a conversion by molar mass, not a printed value.

What is called MIC is the least concentration at which growth counts as inhibited. For the compound `CCc1c(-c2ccc3c(c2)cc(CN2CCCCC2C(F)(F)F)n3C)[nH]c(=O)c(C(=O)O)c1O` (centres unmarked) [Cpd 258, 5-ethyl-4-hydroxy-6-(1-methyl-2-((2-(trifluoromethyl)piperidin-1-yl)methyl)-1H-indol-5-yl)-2-oxo-1,2-dihydropyridine-3-carboxylic acid], the MIC in assay [1] was less than 1 µg/mL; in assay [2], 3.5 to 12.5 µg/mL (≈ 7.33 to 26.2 µM); in assay [3], 12.5 to 150 µg/mL (≈ 26.2 to 314 µM); in assay [4], 12.5 to 150 µg/mL (≈ 26.2 to 314 µM).
For the compound `CCc1c(-c2ccc3c(c2)cc(CN2CCCCC2CCOC)n3C)[nH]c(=O)c(C(=O)O)c1O` (centres unmarked) [Cpd 259, 5-ethyl-4-hydroxy-6-(2-((2-(2-methoxyethyl)piperidin-1-yl)methyl)-1-methyl-1H-indol-5-yl)-2-oxo-1,2-dihydropyridine-3-carboxylic acid], the MIC was less than 1 µg/mL in assay [1], 3.5 to 12.5 µg/mL (≈ 7.49 to 26.7 µM) in assay [2], 3.5 to 12.5 µg/mL (≈ 7.49 to 26.7 µM) in assay [3] and 12.5 to 150 µg/mL (≈ 26.7 to 321 µM) in assay [4].
As for `CCc1c(-c2ccc3c(c2)cc(CN2CCCCC2CCCOC)n3C)[nH]c(=O)c(C(=O)O)c1O` (centres unmarked) [Cpd 260, 5-ethyl-4-hydroxy-6-(2-((2-(3-methoxypropyl)piperidin-1-yl)methyl)-1-methyl-1H-indol-5-yl)-2-oxo-1,2-dihydropyridine-3-carboxylic acid], the MIC in assay [1] was less than 1 µg/mL; in assay [2] it was 3.5 to 12.5 µg/mL (≈ 7.27 to 26 µM); in assay [3], 3.5 to 12.5 µg/mL (≈ 7.27 to 26 µM); in assay [4], 12.5 to 150 µg/mL (≈ 26 to 311 µM).
For the compound `CCc1c(-c2ccc3c(c2)cc(CNC2CCNCC2)n3C)[nH]c(=O)c(C(=O)O)c1O` [Cpd 263, 5-ethyl-4-hydroxy-6-(1-methyl-2-((piperidin-4-ylamino)methyl)-1H-indol-5-yl)-2-oxo-1,2-dihydropyridine-3-carboxylic acid], the MIC in assay [1] was in the range of 3.5 to 12.5 µg/mL (≈ 8.24 to 29.4 µM); in assay [2], 12.5 to 150 µg/mL (≈ 29.4 to 353 µM); in assay [3] it was 12.5 to 150 µg/mL (≈ 29.4 to 353 µM); in assay [4], 12.5 to 150 µg/mL (≈ 29.4 to 353 µM).
Consider `CCc1c(-c2ccc3c(c2)cc(CN(CC2CC2)C2CCCNC2)n3C)[nH]c(=O)c(C(=O)O)c1O` (centres unmarked) [Cpd 265, 6-(2-(((cyclopropylmethyl)(piperidin-3-yl)amino)methyl)-1-methyl-1H-indol-5-yl)-5-ethyl-4-hydroxy-2-oxo-1,2-dihydropyridine-3-carboxylic acid], for which the MIC in assay [1] lay within 1 to 3.5 µg/mL (≈ 2.09 to 7.31 µM); in assay [2], 1 to 3.5 µg/mL (≈ 2.09 to 7.31 µM); in assay [3], 12.5 to 150 µg/mL (≈ 26.1 to 313 µM); in assay [4], 12.5 to 150 µg/mL (≈ 26.1 to 313 µM).
With `CCc1c(-c2ccc3c(c2)cc(CN2CCC[C@H]2CNc2ccccc2)n3C)[nH]c(=O)c(C(=O)O)c1O` [Cpd 266, (S)-5-ethyl-4-hydroxy-6-(1-methyl-2-((2-((phenylamino)methyl)pyrrolidin-1-yl)methyl)-1H-indol-5-yl)-2-oxo-1,2-dihydropyridine-3-carboxylic acid], the MIC in assay [1] is less than 1 µg/mL; in assay [2], less than 1 µg/mL; in assay [3] it was 12.5 to 150 µg/mL (≈ 25 to 300 µM); in assay [4] it was 12.5 to 150 µg/mL (≈ 25 to 300 µM).
Regarding `CCc1c(-c2ccc3c(c2)cc(CN2CCC(c4ccccn4)C2)n3C)[nH]c(=O)c(C(=O)O)c1O` (centres unmarked) [Cpd 267, 5-ethyl-4-hydroxy-6-(1-methyl-2-((3-(pyridin-2-yl)pyrrolidin-1-yl)methyl)-1H-indol-5-yl)-2-oxo-1,2-dihydropyridine-3-carboxylic acid], the MIC in assay [1] is less than 1 µg/mL; in assay [2], 3.5 to 12.5 µg/mL (≈ 7.41 to 26.5 µM); in assay [3], 1 to 3.5 µg/mL (≈ 2.12 to 7.41 µM); in assay [4], 12.5 to 150 µg/mL (≈ 26.5 to 317 µM).
The corresponding values for `CCc1c(-c2ccc3c(c2)cc(CN2CCC(c4ccncc4)C2)n3C)[nH]c(=O)c(C(=O)O)c1O` (centres unmarked) [Cpd 268, 5-ethyl-4-hydroxy-6-(1-methyl-2-((3-(pyridin-4-yl)pyrrolidin-1-yl)methyl)-1H-indol-5-yl)-2-oxo-1,2-dihydropyridine-3-carboxylic acid] are less than 1 µg/mL, 3.5 to 12.5 µg/mL (≈ 7.41 to 26.5 µM), 3.5 to 12.5 µg/mL (≈ 7.41 to 26.5 µM) and 12.5 to 150 µg/mL (≈ 26.5 to 317 µM).
In the case of `CCc1c(-c2ccc3c(c2)cc(CN2CC(C(=O)O)C2)n3C)[nH]c(=O)c(C(=O)O)c1O` [Cpd 269, 6-(2-((3-carboxyazetidin-1-yl)methyl)-1-methyl-1H-indol-5-yl)-5-ethyl-4-hydroxy-2-oxo-1,2-dihydropyridine-3-carboxylic acid], the MIC in assay [1] lay in the range of 3.5 to 12.5 µg/mL (≈ 8.23 to 29.4 µM); in assay [2] it was 12.5 to 150 µg/mL (≈ 29.4 to 353 µM); in assay [3], 12.5 to 150 µg/mL (≈ 29.4 to 353 µM); in assay [4], 12.5 to 150 µg/mL (≈ 29.4 to 353 µM).
On to `CCc1c(-c2ccc3c(c2)cc(CN2CC(C(=O)N(C)C)C2)n3C)[nH]c(=O)c(C(=O)O)c1O` [Cpd 270, 6-(2-((3-(dimethylcarbamoyl)azetidin-1-yl)methyl)-1-methyl-1H-indol-5-yl)-5-ethyl-4-hydroxy-2-oxo-1,2-dihydropyridine-3-carboxylic acid], for which the MIC was less than 1 µg/mL in assay [1], 3.5 to 12.5 µg/mL (≈ 7.73 to 27.6 µM) in assay [2], 3.5 to 12.5 µg/mL (≈ 7.73 to 27.6 µM) in assay [3] and 12.5 to 150 µg/mL (≈ 27.6 to 331 µM) in assay [4].
With `CCc1c(-c2ccc3c(c2)cc(CN[C@H](C)C(F)(F)F)n3C)[nH]c(=O)c(C(=O)O)c1O` [Cpd 272, (R)-5-ethyl-4-hydroxy-6-(1-methyl-2-((1,1,1-trifluoropropan-2-ylamino)methyl)-1H-indol-5-yl)-2-oxo-1,2-dihydropyridine-3-carboxylic acid], the MIC was less than 1 µg/mL in assay [1], 1 to 3.5 µg/mL (≈ 2.29 to 8 µM) in assay [2], 12.5 to 150 µg/mL (≈ 28.6 to 343 µM) in assay [3] and 12.5 to 150 µg/mL (≈ 28.6 to 343 µM) in assay [4].
Turning to `CCc1c(-c2ccc3c(c2)cc(CN[C@@H](C)C(F)(F)F)n3C)[nH]c(=O)c(C(=O)O)c1O` [Cpd 273, (S)-5-ethyl-4-hydroxy-6-(1-methyl-2-((1,1,1-trifluoropropan-2-ylamino)methyl)-1H-indol-5-yl)-2-oxo-1,2-dihydropyridine-3-carboxylic acid], the MIC in assay [1] is less than 1 µg/mL; in assay [2], 3.5 to 12.5 µg/mL (≈ 8 to 28.6 µM); in assay [3] it was 12.5 to 150 µg/mL (≈ 28.6 to 343 µM); in assay [4], 12.5 to 150 µg/mL (≈ 28.6 to 343 µM).
As for `CCc1c(-c2ccc3c(c2)cc(CN2C[C@H]4CCC[C@@H](N(C)Cc5ccccc5)[C@H]4C2)n3C)[nH]c(=O)c(C(=O)O)c1O` [Cpd 280, 6-(2-(((3aR,4R,7aS)-4-(benzyl(methyl)amino)-1H-isoindol-2(3H,3aH,4H,5H,6H,7H,7aH)-yl)methyl)-1-methyl-1H-indol-5-yl)-5-ethyl-4-hydroxy-2-oxo-1,2-dihydropyridine-3-carboxylic acid], the MIC in assay [1] is less than 1 µg/mL; in assay [2], 1 to 3.5 µg/mL (≈ 1.76 to 6.15 µM); in assay [3], 12.5 to 150 µg/mL (≈ 22 to 264 µM); in assay [4], 12.5 to 150 µg/mL (≈ 22 to 264 µM).
As for `CCc1c(-c2ccc3c(c2)cc(CN2C[C@H]4CC[C@@H](N(Cc5ccccc5)Cc5ccccc5)[C@H]4C2)n3C)[nH]c(=O)c(C(=O)O)c1O` [Cpd 281, 6-(2-(((3aR,4R,6aS)-4-(dibenzylamino)hexahydrocyclopenta[c]pyrrol-2(1H)-yl)methyl)-1-methyl-1H-indol-5-yl)-5-ethyl-4-hydroxy-2-oxo-1,2-dihydropyridine-3-carboxylic acid], the MIC in assay [1], in assay [2], in assay [3] and in assay [4] was 12.5 to 150 µg/mL (≈ 19.8 to 238 µM) in each case.
In the case of `CCc1c(-c2ccc3c(c2)cc(CN2C[C@H]4CCC[C@@H](N(Cc5ccccc5)Cc5ccccc5)[C@H]4C2)n3C)[nH]c(=O)c(C(=O)O)c1O` [Cpd 283, 6-(2-(((3aR,4R,7aS)-4-(dibenzylamino)-1H-isoindol-2(3H,3aH,4H,5H,6H,7H,7aH)-yl)methyl)-1-methyl-1H-indol-5-yl)-5-ethyl-4-hydroxy-2-oxo-1,2-dihydropyridine-3-carboxylic acid], the MIC in assay [1], in assay [2], in assay [3] and in assay [4] was 12.5 to 150 µg/mL (≈ 19.4 to 233 µM) each time.
Turning to `CCc1c(-c2ccc3c(c2)cc(CN2C[C@H]4C[C@@H](N(Cc5ccccc5)Cc5ccccc5)C[C@H]4C2)n3C)[nH]c(=O)c(C(=O)O)c1O` [Cpd 286, 6-(2-(((3aR,5r,6aS)-5-(dibenzylamino)hexahydrocyclopenta[c]pyrrol-2(1H)-yl)methyl)-1-methyl-1H-indol-5-yl)-5-ethyl-4-hydroxy-2-oxo-1,2-dihydropyridine-3-carboxylic acid], the MIC in assay [1], in assay [2], in assay [3] and in assay [4] was 12.5 to 150 µg/mL (≈ 19.8 to 238 µM) throughout.
Regarding `CCc1c(-c2ccc3c(c2)cc(CNCc2ccc(F)cc2)n3C)[nH]c(=O)c(C(=O)O)c1O` [Cpd 292, 5-ethyl-6-(2-((4-fluorobenzylamino)methyl)-1-methyl-1H-indol-5-yl)-4-hydroxy-2-oxo-1,2-dihydropyridine-3-carboxylic acid], the MIC in assay [1] is less than 1 µg/mL; in assay [2] it was 3.5 to 12.5 µg/mL (≈ 7.79 to 27.8 µM); in assay [3] it was 1 to 3.5 µg/mL (≈ 2.22 to 7.79 µM); in assay [4], 12.5 to 150 µg/mL (≈ 27.8 to 334 µM).
Take `CCc1c(-c2ccc3c(c2)cc(CNCc2ccccc2OC)n3C)[nH]c(=O)c(C(=O)O)c1O` [Cpd 293, 5-ethyl-4-hydroxy-6-(2-((2-methoxybenzylamino)methyl)-1-methyl-1H-indol-5-yl)-2-oxo-1,2-dihydropyridine-3-carboxylic acid]: the MIC was less than 1 µg/mL in assay [1], 3.5 to 12.5 µg/mL (≈ 7.58 to 27.1 µM) in assay [2], less than 1 µg/mL in assay [3] and 12.5 to 150 µg/mL (≈ 27.1 to 325 µM) in assay [4].
On to `CCc1c(-c2ccc3c(c2)cc(CNCc2cccc(C)c2)n3C)[nH]c(=O)c(C(=O)O)c1O` [Cpd 294, 5-ethyl-4-hydroxy-6-(1-methyl-2-((3-methylbenzylamino)methyl)-1H-indol-5-yl)-2-oxo-1,2-dihydropyridine-3-carboxylic acid], for which the MIC in assay [1] was less than 1 µg/mL; in assay [2], 1 to 3.5 µg/mL (≈ 2.24 to 7.86 µM); in assay [3] it was less than 1 µg/mL; in assay [4], 12.5 to 150 µg/mL (≈ 28.1 to 337 µM).
Take `CCc1c(-c2ccc3c(c2)cc(CNCc2ccccc2C)n3C)[nH]c(=O)c(C(=O)O)c1O` [Cpd 295, 5-ethyl-4-hydroxy-6-(1-methyl-2-((2-methylbenzylamino)methyl)-1H-indol-5-yl)-2-oxo-1,2-dihydropyridine-3-carboxylic acid]: the MIC is less than 1 µg/mL in assay [1], 1 to 3.5 µg/mL (≈ 2.24 to 7.86 µM) in assay [2], 3.5 to 12.5 µg/mL (≈ 7.86 to 28.1 µM) in assay [3] and 12.5 to 150 µg/mL (≈ 28.1 to 337 µM) in assay [4].
